Reference: patent US20040121962A1, “Prodrugs of excitatory amino acids” (priority 2001, published 2004)

How the values were obtained:
[1] = system: fear-potentiated startle (mGlu2/3 receptor linked); assay: Rat fear-potentiated startle anxiety model; format: in vivo; conditions: for MED (1 hour pre-treatement): fed rats, oral, 1 hour pre-treatment
Text: This model was specifically chosen, as it is highly sensitive to mGlu2/3 agonists such as LY354740 and compounds of the present invention. (See, Helton […]., Monn […]., and Kallman M. J., Anxiolytic and side-effect profile of LY354740: A potent, high selective, orally active agonist for group II metabotropic glutamate receptors, J. Pharmacol. Exp. Ther. 284: 651-660 (1998)). To verify that the actions of a compound of formula I in this model were mGlu2/3 receptor mediated, as has been shown previously for LY354740 (See, […]., Ornstein P. L., Monn J. A., and Schoepp D. D., Actions of mGlu receptor agonists on fear-conditioning versus fear-expression in rats, Neuropharmacology, 38:[…] (#144) (1999)), the ability of LY341495 (an mGlu2/3 receptor antagonist) (See, Kingston A. E., Ornstein P. L., Wright R. A., Johnson […]., Burnett […]., Wu S., and Schoepp D. […] As a positive control in each experiment, diazepam (0.6 mg/kg i.p.) was used. All experiments were performed in fed rats. In the fear potentiated startle model, animals are exposed to a neutral stimulus such as light (conditioned stimulus) with an aversive stimulus such as a shock (unconditioned stimulus). Following conditioning, when the animals are presented with a loud acoustic stimulus, larger startle responses are elicited when the startle stimulus is preceded by light. Male Long Evans rats (180-400 g) or male NIH Swiss mice (18-35 g) were obtained from Harlan Sprague-Dawley, Cumberland, Ind., USA and acclimated at least 3 days before testing. Animals were housed at 23±2° C. (relative humidity 30% to 70%) and given Purina Certified Rodent Chow and water ad libitum. The photoperiod was 12 hours of light and 12 hours of dark, with dark onset at approximately 1800 hours. Test compounds were dissolved in a vehicle of purified water and neutralized with 5 N NaOH to a pH of 7-8 when applicable. Diazepam (Sigma Chemical Company, St. […] Control animals received the respective vehicle. […]

human mGluR3 = biological target: T1, human mGluR3 (Homo sapiens, UniProt Q14832); assay: Displacement of [3H]LY341495 binding to cell membranes, human mGluR3; conditions: read-out: Displacement of 3H-LY341495 binding (Ki, nM) (mean ± S.E., N = 3)
T1 construct: expressed in transfected cells
Method: (§1) To study the ability to affect receptor binding of compounds of the present invention in comparison to LY354740, displacement of a high affinity mGluR2 antagonist radioligand [^3H]LY341495 to cell membranes from human mGluR2, human mGluR3, and native rat brain tissues was determined.

human mGluR2 = biological target: T2, human mGluR2 (Homo sapiens, UniProt Q14416); assay: Displacement of [3H]LY341495 binding to cell membranes, human mGluR2; conditions: read-out: Displacement of 3H-LY341495 binding (Ki, nM) (mean ± S.E., N = 3)
T2 construct: expressed in transfected cells
Method: as §1

[2] = biological target: mGlu2/3 receptors in rat forebrain membranes; conditions: read-out: Displacement of 3H-LY341495 binding (Ki, nM) (mean ± S.E., N = 3)
Method: as §1

T1 sequence (Q14832 23-879): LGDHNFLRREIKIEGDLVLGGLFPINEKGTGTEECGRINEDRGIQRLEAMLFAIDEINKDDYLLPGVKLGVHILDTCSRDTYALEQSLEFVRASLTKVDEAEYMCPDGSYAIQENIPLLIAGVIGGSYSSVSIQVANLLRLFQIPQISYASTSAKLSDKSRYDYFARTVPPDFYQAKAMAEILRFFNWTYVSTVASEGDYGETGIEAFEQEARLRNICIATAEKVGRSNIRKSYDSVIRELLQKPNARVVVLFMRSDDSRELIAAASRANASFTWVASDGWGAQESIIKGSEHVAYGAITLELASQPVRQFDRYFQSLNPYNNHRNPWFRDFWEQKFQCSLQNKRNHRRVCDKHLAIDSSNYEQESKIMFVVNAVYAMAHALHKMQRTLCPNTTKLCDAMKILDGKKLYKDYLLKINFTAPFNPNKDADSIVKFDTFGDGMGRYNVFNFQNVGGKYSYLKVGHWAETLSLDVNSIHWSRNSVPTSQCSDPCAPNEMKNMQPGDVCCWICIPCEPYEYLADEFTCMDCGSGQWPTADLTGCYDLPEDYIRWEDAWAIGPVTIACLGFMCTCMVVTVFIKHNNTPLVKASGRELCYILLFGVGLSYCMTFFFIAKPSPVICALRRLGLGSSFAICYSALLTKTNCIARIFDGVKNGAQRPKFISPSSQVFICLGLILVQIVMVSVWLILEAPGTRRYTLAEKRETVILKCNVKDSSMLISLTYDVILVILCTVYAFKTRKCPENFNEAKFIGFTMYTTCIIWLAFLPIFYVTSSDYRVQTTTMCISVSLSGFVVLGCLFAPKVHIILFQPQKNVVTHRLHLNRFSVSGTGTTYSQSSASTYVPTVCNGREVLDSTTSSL
T2 sequence (Q14416 19-872): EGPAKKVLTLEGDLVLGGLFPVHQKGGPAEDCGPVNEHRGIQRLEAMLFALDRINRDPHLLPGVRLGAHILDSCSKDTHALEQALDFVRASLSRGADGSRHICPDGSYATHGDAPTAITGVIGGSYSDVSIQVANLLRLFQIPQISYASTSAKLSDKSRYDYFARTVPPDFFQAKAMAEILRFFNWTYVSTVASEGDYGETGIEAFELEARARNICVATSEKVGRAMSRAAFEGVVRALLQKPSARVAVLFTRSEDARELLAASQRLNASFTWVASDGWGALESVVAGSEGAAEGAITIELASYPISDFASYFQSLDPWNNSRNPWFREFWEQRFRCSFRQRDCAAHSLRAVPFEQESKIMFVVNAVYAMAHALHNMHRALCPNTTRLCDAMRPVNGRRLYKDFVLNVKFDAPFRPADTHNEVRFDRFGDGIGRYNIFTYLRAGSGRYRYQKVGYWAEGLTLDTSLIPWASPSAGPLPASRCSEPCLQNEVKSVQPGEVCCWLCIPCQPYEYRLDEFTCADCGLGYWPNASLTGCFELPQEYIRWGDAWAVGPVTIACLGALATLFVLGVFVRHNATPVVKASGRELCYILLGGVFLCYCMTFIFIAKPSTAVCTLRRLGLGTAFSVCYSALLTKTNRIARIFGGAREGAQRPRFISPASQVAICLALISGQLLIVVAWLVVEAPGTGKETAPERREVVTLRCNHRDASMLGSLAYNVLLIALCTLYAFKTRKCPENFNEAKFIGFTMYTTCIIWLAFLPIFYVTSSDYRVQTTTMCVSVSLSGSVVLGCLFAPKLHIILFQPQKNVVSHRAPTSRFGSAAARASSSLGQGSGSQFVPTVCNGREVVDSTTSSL

Row | Structure (SMILES) | oral potency in the treatment of anxiety ([1]; preclinical studies) | MED (1 hour pre-treatement) [1] | Ki (human mGluR3) | Ki (human mGluR2) | Ki [2]
1 | C[C@H](N)C(=O)N[C@@]1(C(=O)O)CC[C@H]2[C@H](C(=O)O)[C@H]21.Cl [Example 3, (1S,2S,5R,6S)-2-[(2′S)-(2′-Amino)-propionyl]amino-bicyclo[3.1.0]hexane-2,6-dicarboxylic acid hydrochloride] | greatly enhanced oral potency | – | – | – | –
2 | NC1(C(=O)O)CCC2C(C(=O)O)C21 (single isomer, unassigned; (+)) [LY354740, (+)-2-aminobicyclo[3.1.0]hexane-2,6-dicarboxylic acid] | – | 3.0 mg/kg p.o. | 126 ± 4.8 nM | 84.7 ± 11.1 nM | 80 ± 7.3 nM
3 | C[C@H](N)C(=O)N[C@@]1(C(=O)O)CC[C@H]2[C@H](C(=O)O)[C@H]21 [Formula I, (1S,2S,5R,6S)-2-[(2′S)-(2′-Amino)-propionyl]amino-bicyclo[3.1.0]hexane-2,6-dicarboxylic acid] | – | 0.01 mg/kg p.o. | > 10000 nM | > 10000 nM | –
